Experimental data taken from patent publication US20260242393A1, “Preparation Method for and Use of Dihydrothienopyrimidine Derivative” (Innovstone Therapeutics Limited, priority 2023, published 2026).
Like-named read-outs stand apart in the source and are kept apart here. Blank lines part the entries; values can stand above or below the compound they belong to.

Columns and labels:
[1] = target: T1, PDE4B2 (Homo sapiens, UniProt Q07343); assay: In vitro PDE4B2 enzyme inhibitory activity (AMP-Glo); assay type: biochemical
T1 construct: purchased BPS bioscience

[2] = Pharmacokinetic assay in mice, plasma concentration by LC-MS/MS; assay type: in vivo, CD-1 male mice; conditions: male, CD-1, mouse
Method: Assay 2: Pharmacokinetic Assay by Using LC-MS/MS to Determine the Compound Concentration in Mice
Assay principle: LC-MS/MS was used to determine the drug concentration of the target drug in plasma at different times, and to plot the pharmacokinetic curve of the target compound in vivo.
An accurately weighed amount of the test compound was dissolved in 5% DMSO (INNOCHEM, INBZZHCAE) by vortex mixing. Subsequently, 10% Solutol (BASF, 75389809T0) was added and homogenized by vortexing.
Finally, 85% saline (Fengyuan, 220505102) was incorporated with vortex mixing to achieve dosing formulations at 0.4 mg/mL and 1.0 mg/mL.
The mice were sourced from CD-1 male mice (JH Laboratory Animal Co. LTD), with three mice for each group.
The mice were administered with 2 mg/kg intravenously (IV) or 10 mg/kg by oral gavage (PO). The blood samples were collected at 5 min (IV group only), 15 min, 30 min, 1 h, 2 h, 4h, 8h, and 24h (PO group only) after administration.
Approximately 30 μL blood samples were collected at each time point and placed into anticoagulant tubes containing EDTA-K2 anticoagulant. Plasma was obtained by centrifugation within 30 minutes. Whole blood samples before centrifugation were placed on wet ice. For each test compound, 42 plasma samples were collected.
All collected plasma samples were stored on dry ice or in a freezer until analysis. The drug concentration was determined using a Triple-quadrupole MS system (SCIEX), including standard curve and quality control preparation, and sample preparation.
Standard curve and quality control preparation: a working solution was prepared by ACN:H2O (1:1) dilution, and 3 μL of the above standard curve and quality control working solution was added to 57 μL of blank plasma.
Sample preparation: 7 μL of plasma sample was added to 70 μL of internal standard solution (Propranolol, Tolbutamide, Glipizide, Osalmid, each 200 ng/mL in ACN). The mixture was mixed for 5 minutes and centrifuged at 4000 rpm for 10 minutes. 50 μL of supernatant was taken and transferred to a new plate containing 200 μL ultrapure water for sample analysis.
Chromatographic conditions were optimized for each sample, regarding mobile phase composition, elution gradient conditions, flow rate, retention time, etc. The chromatographic column was Waters Acquity UPLC HSS T3 1.8 μm, 2.1×50 mm. The injection volume was 2 μL.
An electrospray ionization source was used in mass spectrometry. In the positive ion detection mode, the multi-channel reaction monitoring (MRM) mode was selected for secondary mass spectrometry analysis.
Based on the drug concentration-time data, pharmacokinetic parameters were calculated using WinNonlin 8.2 software according to a non-compartmental model, including peak concentration Cmax, peak time Tmax, area under the drug-time curve AUC, and elimination half-life t1/2. The AUC was calculated using the linear trapezoidal method (linear up log down).

[3] = PDE4B2 enzyme inhibition, read-out: PDE4B2 IC50
[4] = read-out: IC50 values of PDE4B2 enzyme inhibition

T1 sequence (Q07343 1-564 isoform Q07343-2): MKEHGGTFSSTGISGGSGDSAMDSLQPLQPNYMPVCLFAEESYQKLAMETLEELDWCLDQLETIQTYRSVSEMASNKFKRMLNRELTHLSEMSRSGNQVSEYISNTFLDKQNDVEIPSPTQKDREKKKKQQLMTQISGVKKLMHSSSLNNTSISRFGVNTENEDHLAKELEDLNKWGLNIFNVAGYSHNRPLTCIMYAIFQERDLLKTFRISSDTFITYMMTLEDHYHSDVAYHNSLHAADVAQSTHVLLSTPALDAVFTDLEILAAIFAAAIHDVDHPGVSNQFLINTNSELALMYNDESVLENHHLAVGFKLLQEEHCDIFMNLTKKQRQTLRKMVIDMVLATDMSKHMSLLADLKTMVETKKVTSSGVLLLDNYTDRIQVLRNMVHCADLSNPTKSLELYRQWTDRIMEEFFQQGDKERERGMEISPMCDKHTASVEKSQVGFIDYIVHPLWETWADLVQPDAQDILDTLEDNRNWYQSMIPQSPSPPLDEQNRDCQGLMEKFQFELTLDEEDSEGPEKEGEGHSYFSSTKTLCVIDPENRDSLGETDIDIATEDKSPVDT

SMILES: COC1(c2ccc(OCC3CC3)cc2)CN(c2nc3c(c(NC4(CO)CCC4)n2)[S+]([O-])CC3)C1 (racemic) [Compound 106, (R/S)-2-(3-(4-(cyclopropylmethoxy)phenyl)-3-methoxyazetidin-1-yl)-4-((1-(hydroxymethyl)cyclobutyl)amino)-6,7-dihydrothieno[3,2-d]pyrimidine 5-oxide]
IC50 [1, 3]: ≤ 2 nM

SMILES: COc1ccc(C2(O)CN(c3nc4c(c(NC5(CO)CCC5)n3)[S+]([O-])CC4)C2)cc1 (racemic) [Compound 2, (R/S)-2-(3-hydroxy-3-(4-methoxyphenyl)azetidin-1-yl)-4-((1-(hydroxymethyl)cyclobutyl)amino)-6,7-dihydrothieno[3,2-d]pyrimidine 5-oxide]
IC50 [1, 3]: 2 to 5 nM

SMILES: [O-][S+]1CCc2nc(N3Cc4ccc(OC(F)F)cc4C3)nc(NC3(CO)CCC3)c21 (racemic) [Compound 87, (R/S)-2-(5-(difluoromethoxy)isoindolin-2-yl)-4-((1-(hydroxymethyl)cyclobutyl)amino)-6,7-dihydrothieno[3,2-d]pyrimidine 5-oxide]
IC50 [1, 3]: 2 to 5 nM

SMILES: COC1(c2ccc(OC(F)F)cc2)CN(c2nc3c(c(NC4(CO)CCC4)n2)[S+]([O-])CC3)C1 (racemic) [Compound 105, (R/S)-2-(3-(4-(difluoromethoxy)phenyl)-3-methoxyazetidin-1-yl)-4-((1-(hydroxymethyl)cyclobutyl)amino)-6,7-dihydrothieno[3,2-d]pyrimidine 5-oxide]
IC50 [1, 3]: ≤ 2 nM
IC50 [1, 4]: < 1 nM

SMILES: COC1(c2ccc(N3CCCC3)cc2)CN(c2nc3c(c(NC4(CO)CCC4)n2)[S+]([O-])CC3)C1 (racemic) [Compound 107, (R/S)-4-((1-(hydroxymethyl)cyclobutyl)amino)-2-(3-methoxy-3-(4-(pyrrolidin-1-yl)phenyl)azetidin-1-yl)-6,7-dihydrothieno[3,2-d]pyrimidine 5-oxide]
IC50 [1, 3]: ≤ 2 nM
IC50 [1, 4]: < 1 nM

SMILES: COc1cc(C2(OC)CN(c3nc4c(c(NC5(CO)CCC5)n3)[S+]([O-])CC4)C2)ccc1Cl (racemic) [Compound 79, (R/S)-2-(3-(4-chloro-3-methoxyphenyl)-3-methoxyazetidin-1-yl)-4-((1-(hydroxymethyl)cyclobutyl)amino)-6,7-dihydrothieno[3,2-d]pyrimidine 5-oxide]
IC50 [1, 3]: ≤ 2 nM
IC50 [1, 4]: < 1 nM

SMILES: CC(C)(O)c1ccc2c(c1)CN(c1nc3c(c(NC4(CO)CCC4)n1)[S+]([O-])CC3)C2 (racemic) [Compound 29, (R/S)-4-((1-(hydroxymethyl)cyclobutyl)amino)-2-(5-(2-hydroxypropan-2-yl)isoindolin-2-yl)-6,7-dihydrothieno[3,2-d]pyrimidine 5-oxide]
IC50 [1, 3]: ≤ 2 nM

SMILES: [O-][S+]1CCc2nc(N3CC(O)(c4ccc(Cl)c(F)c4)C3)nc(NC3(CO)CCC3)c21 (racemic) [Compound 80, (R/S)-2-(3-(4-chloro-3-fluorophenyl)-3-hydroxyazetidin-1-yl)-4-((1-(hydroxymethyl)cyclobutyl)amino)-6,7-dihydrothieno[3,2-d]pyrimidine 5-oxide]
IC50 [1, 3]: 2 to 5 nM

SMILES: [O-][S+]1CCc2nc(N3CCC(c4ncc(Cl)cn4)CC3)nc(NC3(CO)CCC3)c21 (stereo not shown) [Control 1, reference compound]
IC50 [1, 3]: 20 to 50 nM
AUC(0-inf) ([2]; IV, 2 mg/kg): 2900 ng·h/mL
clearance ([2]; IV, 2 mg/kg): 11.8 mL/min/kg
half-life ([2]; IV, 2 mg/kg): 1.57 h
AUC(0-inf) ([2]; PO, 10 mg/kg): 12100 ng·h/mL
Cmax ([2]; PO, 10 mg/kg): 2250 ng/mL
Tmax ([2]; PO, 10 mg/kg): 0.5 h

SMILES: CC(C)(O)c1ccc2c(c1)CN(c1nc3c(c(NC4CCOCC4)n1)[S+]([O-])CC3)C2 (racemic) [Compound 84, (R/S)-2-(5-(2-hydroxypropan-2-yl)isoindolin-2-yl)-4-((tetrahydro-2H-pyran-4-yl)amino)-6,7-dihydrothieno[3,2-d]pyrimidine 5-oxide]
IC50 [1, 3]: ≤ 2 nM

Now from value to compound:

IC50 [1, 3]: 2 to 5 nM
AUC(0-inf) ([2]; IV, 2 mg/kg): 17600 ng·h/mL
clearance ([2]; IV, 2 mg/kg): 2.4 mL/min/kg
half-life ([2]; IV, 2 mg/kg): 5.01 h
AUC(0-inf) ([2]; PO, 10 mg/kg): 23100 ng·h/mL
Cmax ([2]; PO, 10 mg/kg): 5950 ng/mL
Tmax ([2]; PO, 10 mg/kg): 1.33 h
SMILES: [O-][S+]1CCc2nc(N3Cc4ccc(Cl)cc4C3)nc(NC3(CO)CCC3)c21 (racemic) [Compound 25, (R/S)-2-(5-chloroisoindolin-2-yl)-4-((1-(hydroxymethyl)cyclobutyl)amino)-6,7-dihydrothieno[3,2-d]pyrimidine 5-oxide]

IC50 [1, 3]: 2 to 5 nM
SMILES: COc1ccc(C2(O)CN(c3nc4c(c(NC5(CO)CCC5)n3)[S+]([O-])CC4)C2)cc1Cl (racemic) [Compound 4, (R/S)-2-(3-(3-chloro-4-methoxyphenyl)-3-hydroxyazetidin-1-yl)-4-((1-(hydroxymethyl)cyclobutyl)amino)-6,7-dihydrothieno[3,2-d]pyrimidine 5-oxide]

IC50 [1, 3]: ≤ 2 nM
SMILES: COc1cc(C2(O)CN(c3nc4c(c(NC5(CO)CCC5)n3)[S+]([O-])CC4)C2)ccc1Cl (racemic) [Compound 3, (R/S)-2-(3-(4-chloro-3-methoxyphenyl)-3-hydroxyazetidin-1-yl)-4-((1-(hydroxymethyl)cyclobutyl)amino)-6,7-dihydrothieno[3,2-d]pyrimidine 5-oxide]

IC50 [1, 3]: 2 to 5 nM
SMILES: [O-][S+]1CCc2nc(C3=CCN(c4ncc(Cl)cn4)CC3)nc(NC3(CO)CCC3)c21 (racemic) [Compound 16, (R/S)-2-(1-(5-chloropyrimidin-2-yl)-1,2,3,6-tetrahydropyridin-4-yl)-4-((1-(hydroxymethyl)cyclobutyl)amino)-6,7-dihydrothieno[3,2-d]pyrimidine 5-oxide]

IC50 [1, 3]: ≤ 2 nM
IC50 [1, 4]: < 1 nM
SMILES: [2H]C([2H])([2H])OC1(c2ccc(Cl)cc2)CN(c2nc3c(c(NC4(CO)CCC4)n2)[S+]([O-])CC3)C1 (racemic) [Compound 92, (R/S)-2-(3-(4-chlorophenyl)-3-(methoxy-d3)azetidin-1-yl)-4-((1-(hydroxymethyl)cyclobutyl)amino)-6,7-dihydrothieno[3,2-d]pyrimidine 5-oxide]
